The conditions of experiment [1]: cited from earlier work.
The target of the next experiment is T1, aldose reductase (AR) (Rattus norvegicus, UniProt P07943).
T1 construct: centrifuged at 10,000× g for 30 min at 4 °C (Centrifuge 5417R, Eppendorf, Germany) to obtain AR homogenate (in the supernatant); from tissue; host or cells: eye lenses of Sprague–Dawley rats
Put plainly: Aldose reductase (AR) inhibition assay, rat lens homogenate. In kind it is biochemical, Sprague–Dawley rats. The note with it: for inhibition at 3.125 µM / inhibition at 6.25 µM / inhibition at 12.5 µM / inhibition at 25 µM: read-out: AR inhibition activity, inhibition (%). How it is done:
For the extraction of AR, the rat eye lenses were grounded in a precooled mortar (−70 °C) and extracted using 0.1 M PBS (pH 6.2; about 0.5 mL of PBS per two frozen rat lenses).
A 96-well plate-based AR inhibition assay was used in this study, which was modified from a previous method. In principle, the rate of the absorbance decrease of NADPH at 340 nm (OD340 nm) was used for evaluation of the AR inhibitory activity. […] Then, as soon as 20 μL of the substrate (DL-glyceraldehyde dimer, 25 mM in 0.1 M PBS, pH 7.0) was added, the absorbance of the reaction solution at 340 nm was measured for 6 min using an Epoch microplate spectrophotometer (BioTek Instruments, Highland Park, IL, USA). […] The samples were first prepared at high concentrations in DMSO or in a mixture of DMSO and water and then diluted using water shortly before the experiment. The concentration of DMSO was kept within 0.2% (v/v) in the reaction system. […] The AR inhibition ratio (%) for the samples was calculated using Equation (4):(4) %inhibition=1−Slopes−Slopeb/Slopec−Slopeb×100%, where Slopec, Slopes, and Slopeb are the slopes obtained from the OD340 nm versus the reaction time (min) dotted lines of the control group (without sample), sample group (with enzyme and sample), and blank group (without enzyme or sample), respectively. |Slope| is the absolute value of Slope.

The nature of experiment [2]: DPPH radical scavenging assay. The experiment is classed as biochemical. The note with it: Trolox equivalent antioxidant capacity. How it is done:
(§1) The antioxidant activities of the 70% methanol extract of M. volcanica and the separated compounds were evaluated using DPPH, ABTS, and ORAC assays. The results were expressed as Trolox equivalent antioxidant capacity (TEAC, µg Trolox/µg extract or µM Trolox/µM compound), which were calculated with the equations obtained from the calibration curves of Trolox standards (final concentrations) versus their DPPH and ABTS radical inhibition (%) and the net AUC value (ORAC assay).
The DPPH radical scavenging assay was carried out using an EL800 microplate reader (Bio-Tek Instruments, Winooski, VT, USA). Briefly, 180 μL of freshly prepared DPPH solution (0.32 mM in methanol) was mixed with 20 μL of sample (dissolved in methanol, extract 250 µg/mL; compounds 62.5–1000 µM) in a 96-well plate. The mixture was incubated for 20 min in the dark at 25 °C, and then, the absorbance was measured at […]. […] Results are expressed in µg Trolox equivalents/µg extract or µM Trolox equivalents/µM compound. The DPPH radical scavenging activity (%) is calculated using Equation (1):(1) %inhibition=1−Asample−Ablank1/Acontrol−Ablank2×100%, where Asample is the absorbance of DPPH solution with a sample, Ablank1 is the absorbance of the test sample without DPPH, Acontrol is the absorbance of DPPH solution without a sample, Ablank2 is the absorbance of methanol, without DPPH or a sample.
Background: The DPPH test is a chemical assay of radical scavenging.

Experiment [3] can be described thus: ABTS radical scavenging assay. The experiment is classed as biochemical. The note with it: Trolox equivalent antioxidant capacity. The procedure: as §1
The ABTS radical scavenging assay was carried out using the same EL800 microplate reader. Briefly, 0.2 mM of ABTS diammonium salt was prepared in 3.5 mM of potassium persulfate aqueous solution, and the mixture solution was then diluted 10 times using distilled water. The diluted solution was allowed to stand for 24 h in the dark at room temperature (about 25 °C) to produce ABTS radical cations (ABTS^+). For reaction, 290 μL of ABTS^+ solution was mixed with 10 μL of sample (dissolved in methanol, extract 62.5–125 µg/mL; compounds 20–250 µM) in a 96-well plate, and the mixture solution was allowed to react for 10 min at 25 °C in the dark. Then, the absorbance was measured at 750 nm. […] Results are expressed in µg Trolox equivalents/µg extract or µM Trolox equivalents/µM compound. The ABTS radical scavenging activity (%) is calculated using Equation (1) where Asample is the absorbance of ABTS^+ solution with a sample, Ablank1 is the absorbance of the test sample without ABTS^+, Acontrol is the absorbance of ABTS^+ solution without a sample, Ablank2 is the absorbance of buffer, without ABTS^+ or a sample.

In experiment [4] the target is fructose-mediated bovine serum albumin (BSA) glycation (Bos taurus, UniProt P02769). Put plainly: Antiglycation assay, fructose-mediated BSA glycation model. The note with it: for inhibition at 12.5 µM / inhibition at 25 µM / inhibition at 50 µM / inhibition at 100 µM: read-out: Antiglycation activity, inhibition (%).
Experimental: The antiglycation assay was carried out using a fructose-mediated BSA glycation model as reported previously [43] with minor modifications. […] Then, 200 µL of the reaction solution from each sample was pipetted to black 96-well plates to determine the fluorescent AGEs using a microplate fluorescence reader (BIOTEK-FLx800, Winooski, VT, USA) at excitation and emission wavelengths of 360 ± 20 nm and 460 ± 20 nm, respectively. Aminoguanidine [25], a synthetic antiglycation agent, was used as a positive control with final concentrations of 200 µg/mL to 800 µg/mL or 1 mM to 4 mM.
Experiment [5] concerns streptozotocin-induced diabetic cats. The note with it: cited from earlier work.
The subject of another experiment is diabetic rats. Particulars: cited from earlier work.
A short description of experiment [6]: ORAC (oxygen radical absorbance capacity) assay. The experiment is classed as biochemical. Particulars: Trolox equivalent antioxidant capacity, ORAC assay (peroxyl radicals). How it is done:
as §1
The ORAC assay was carried out using a Fluoroskan Ascent FL microplate reader (Thermo, Waltham, MA, USA) using the method described previously with minor modifications. Antioxidants can scavenge the peroxyl radicals generated by AAPH, which prevent the degradation of the fluorescein and, therefore, prevent the loss of the fluorescence of fluorescein. Briefly, fluorescein sodium salt (117 nM) and AAPH (40 mM) were freshly prepared in 0.1 M phosphate-buffered saline (PBS, pH 7.4). For reaction, 120 µL of fluorescein sodium salt (117 nM) and 20 µL of sample (dissolved in methanol, extract 10–20 µg/mL; compounds 10–160 µM) were mixed in a black 96-well plate and pre-incubated for 15 min at 37 °C. Next, 60 µL of AAPH (40 mM) was added, and the fluorescence was measured 100 times (interval 1 min) at excitation and emission wavelengths of 485 nm and 538 nm, respectively, by the microplate reader maintained at 37 °C. […] The relative ORAC values are expressed in µg Trolox equivalents/µg extract or µM Trolox equivalents/µM compound.

Experiment [7] relates to streptozotocin-induced diabetic rats. The note with it: cited from earlier work.
The subject of the next experiment is human erythrocytes. Set-up: method as in earlier work. The note with it: high glucose conditions; cited from earlier work.

Like-named read-outs stand apart in the source and are kept apart here. Marks after values point to notes of the source that are not given here.

Sequence of fructose-mediated bovine serum albumin (BSA) glycation (P02769 25-607): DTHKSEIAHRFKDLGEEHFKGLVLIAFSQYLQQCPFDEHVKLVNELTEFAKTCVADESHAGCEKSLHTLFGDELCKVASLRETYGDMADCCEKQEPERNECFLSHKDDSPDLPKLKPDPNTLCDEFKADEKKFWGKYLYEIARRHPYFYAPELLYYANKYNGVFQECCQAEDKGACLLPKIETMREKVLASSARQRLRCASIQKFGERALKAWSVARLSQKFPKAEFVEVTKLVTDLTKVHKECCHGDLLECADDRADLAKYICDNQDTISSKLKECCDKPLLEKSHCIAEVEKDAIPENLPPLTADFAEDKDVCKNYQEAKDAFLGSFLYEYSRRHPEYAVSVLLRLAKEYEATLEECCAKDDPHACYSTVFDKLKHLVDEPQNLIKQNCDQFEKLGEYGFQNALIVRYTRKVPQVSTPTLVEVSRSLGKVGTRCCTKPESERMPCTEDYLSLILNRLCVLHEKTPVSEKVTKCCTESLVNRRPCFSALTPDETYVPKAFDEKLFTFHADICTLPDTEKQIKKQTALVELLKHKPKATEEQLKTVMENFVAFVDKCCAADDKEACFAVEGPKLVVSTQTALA

In the case of `O=c1c(O)c(-c2ccc(O)c(O)c2)oc2cc(O)cc(O)c12` [Quercetin (10), quercetin], the “Inhibition of AGEs by trapping methylglyoxal” value in experiment [1] was “inhibit AGEs by trapping methylglyoxal”. In addition, on aldose reductase (AR), the inhibition at 3.125 µM amounted to 12.9 ± 2.11%, the inhibition at 6.25 µM amounted to 26.3 ± 1.21%, the inhibition at 12.5 µM came out at 43 ± 3.02% and the inhibition at 25 µM amounted to 60 ± 1.21%. For the same molecule, the “TEAC, DPPH” value in experiment [2] is listed as 2.14 ± 0.03 ^b µM trolox/µM Compound. Besides, the “TEAC, ABTS” value in experiment [3] is 3.61 ± 0.03 ^a µM trolox/µM Compound. Moreover, in experiment [3] (listed as quercetin), the “TEAC, ABTS” value is 3.61 µM trolox/µM Compound. Besides, in experiment [4], the inhibition at 12.5 µM was determined as 19.4 ± 1.76%, the inhibition at 25 µM was determined as 35.4 ± 0.92%, the inhibition at 50 µM is 67.47 ± 0.24% and the inhibition at 100 µM amounted to 84.3 ± 1.39%. The Impaired cardiac function entry in experiment [5] was “partially reverse the impaired cardiac function”. In addition, the “Progression of lens opacification” value with diabetic rats is reported as “delay the progression of lens opacification”. In [6], the “TEAC, ORAC” value is on record as 6.93 ± 0.30 ^a µM trolox/µM Compound. Besides, the “Effect on oxidative stress” value in experiment [7] is recorded as “ameliorate the oxidative stress”.
For the molecule `C[C@@H]1O[C@@H](OC[C@H]2O[C@@H](Oc3c(-c4ccc(O)c(O)c4)oc4cc(O)cc(O)c4c3=O)[C@H](O)[C@@H](O)[C@@H]2O)[C@H](O)[C@H](O)[C@H]1O` [Rutin (8), rutin], the “Inhibition of AGEs by trapping methylglyoxal” value in [1] is recorded as “inhibit AGEs by trapping methylglyoxal”. The inhibition at 3.125 µM at aldose reductase (AR) (3.125 µM) is 46.4 ± 1.21%. For the same molecule, at aldose reductase (AR) (6.25 µM), the inhibition at 6.25 µM is 62.79 ± 0.3%. The inhibition at 12.5 µM on aldose reductase (AR) (12.5 µM) came to 75.2 ± 0.9%. In addition, the inhibition at 25 µM at aldose reductase (AR) (25 µM) turned out to be 84.5 ± 1.51%. The same molecule had an IC50 against aldose reductase (AR) (rat lens AR homogenate) of 3.51 ± 0.12 µM. The “Accumulation of sorbitol in human erythrocytes” value in the experiment on human erythrocytes is on record as “suppress the accumulation of sorbitol”. Besides, the “TEAC, DPPH” value in experiment [2] was 0.90 ± 0.09 ^e µM trolox/µM Compound. Besides, the “TEAC, ABTS” value in experiment [3] is reported as 1.12 ± 0.04 ^d µM trolox/µM Compound. In addition, in [4], 20.1 ± 0.23 µM corresponded to half-maximal inhibition (IC50), the inhibition at 12.5 µM was found to be 30.8 ± 1.1%, the inhibition at 25 µM stood at 61.7 ± 2.49% and the inhibition at 50 µM was determined as 81.82 ± 0.65%. In [4], the inhibition at 100 µM is 91.51 ± 0.4%. Also, in experiment [5], the Impaired cardiac function result is on record as “partially reverse the impaired cardiac function”. The “Progression of lens opacification” value in the experiment on diabetic rats is reported as “delay the progression of lens opacification”. For the same molecule, the “TEAC, ORAC” value in experiment [6] is 5.77 ± 0.08 ^b µM trolox/µM Compound. For the same molecule, the “Effect on oxidative stress” value in [7] was “ameliorate the oxidative stress”.

Usually inhibition stands for how much of the control response was suppressed. Usually IC50 stands for the concentration that inhibits the measured activity by half.

The values are drawn from PMC7796107, “Efficient Separation of Phytochemicals from Muehlenbeckia volcanica (Benth.) Endl. by Polarity-Stepwise Elution Counter-Current Chromatography and Their Antioxidant, Antiglycation, and Aldose Reductase Inhibition Potentials” (Molecules, 2021).
